Values quoted from earlier work in US6383513B1, “Compositions comprising cannabinoids” (West Pharmaceutical Services Drug Delivery & Clinical …, priority 1997, dated 2002).

Key:
[1] = not given; remark: listed apart in the source

Question: With `CCCCCc1cc(O)c2c(c1)OC(C)(C)[C@@H]1CCC(C)=C[C@@H]21` [Dronabinol, delta-9-tetrahydrocannabinol] as the molecule, how does the “appetite stimulant effect may continue” value (after administration) read?
Answer: Its value is no less than 24 h.

Question: What about the “duration of action for psychoactive effects” value (after oral administration) of the same molecule?
Answer: Its value is 4 to 6 h.

Question: And the onset of action (after oral administration)?
Answer: The onset of action was 0.5 to 1 h.

Question: What about the peak effect (after oral administration) of the same molecule?
Answer: The peak effect was 2 to 4 h.

Question: What about the absorbed ([1]; after single oral doses) of the same molecule?
Answer: Its absorbed is 90-95%.

Question: What about the “administered dose that reaches the systemic circulation” value ([1]; oral, first pass hepatic metabolism and high lipid solubility) of the same molecule?
Answer: Its value is 10-20%.
